This is an account of results in ChEMBL document CHEMBL5728937, “Substituted tetrahydroquinolinone compounds as ROR gamma modulators” (2022).

The target in this experiment is T1, Nuclear receptor ROR-gamma (Homo sapiens, UniProt P51449).
T1 sequence (P51449 whole entry): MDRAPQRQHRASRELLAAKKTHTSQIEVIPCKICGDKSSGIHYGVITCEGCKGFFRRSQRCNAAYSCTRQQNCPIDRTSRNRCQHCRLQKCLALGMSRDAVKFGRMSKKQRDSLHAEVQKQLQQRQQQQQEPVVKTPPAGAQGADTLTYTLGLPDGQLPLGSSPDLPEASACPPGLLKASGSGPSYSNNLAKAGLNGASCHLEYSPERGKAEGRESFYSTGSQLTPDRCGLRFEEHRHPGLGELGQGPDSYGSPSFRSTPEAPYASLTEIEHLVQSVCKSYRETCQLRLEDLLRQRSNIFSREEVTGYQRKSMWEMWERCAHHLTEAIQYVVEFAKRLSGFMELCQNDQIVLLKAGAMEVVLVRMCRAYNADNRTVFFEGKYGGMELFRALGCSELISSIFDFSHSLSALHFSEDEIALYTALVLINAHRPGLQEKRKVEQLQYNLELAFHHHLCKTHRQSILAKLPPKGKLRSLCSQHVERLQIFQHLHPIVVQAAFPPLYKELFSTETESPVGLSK
The experiment in a line: Radio-Ligand Binding Assay: ROR gamma radioligand binding was performed using 3H 25-Hydroxycholesterol in a competitive displacement assay using dextran charcoal method. Using 5 nM 3H 25-Hydroxycholesterol with 300 ng RORγ LBD (in house expressed in E. coli) along with the compound were incubated in the binding buffer (50 mM HEPES, pH 7.5, 150 mM NaCl, 0.01% BSA and 5 mM MgCl2) for 30 min at room temperature. Then dextran-charcoal mixture (0.5% charcoal: 0.05% dextran) was used for separation and the supernatant was read on the Perkin Elmer Trilux Microbeta counter. Dose response curves were generated for 10 compound concentrations using GraphPad Prism software Version 5 (San Diego, Calif., USA) using non-linear regression curve fit for sigmoidal dose response (variable slope).

pIC50: −log10 of the molar value.

With `CCS(=O)(=O)c1ccc(CC(=O)Nc2cc(C)c3c(n2)CCC(C)(c2ccc(OC)nn2)C3=O)cc1` (single isomer, unassigned), the pIC50 was less than 6.52.

What is called pIC50 is −log10 of the IC50, conventionally taken in molar units.
